From patent US20110065208A1, “DETERMINATION AND ESTIMATION OF ABSORPTION AND DISTRIBUTION OF SUBSTANCES IN BRAIN TISSUE” (SOVICELL GMBH, priority 2008, published 2011)
Read-outs that look alike come from different tables or passages of the source.

Columns and labels:
[1] = log BB estimated by QSAR equation (9); settings: Table 5; validation set, calculated by equation (9)
Description: To estimate the plasma-brain partition coefficients, a multilinear regression was carried out according to the equation:
log BB=A*log MAbrain+B*PSA+C*MW+D*log K^B/F+E. (6)

[2] = Table 6; free fraction in brain; cited from earlier work
[3] = Brain lipid-water partition coefficient log MAbrain (membrane affinity) on immobilized brain lipid membranes; format: physicochemical; settings: for logMA_brain: Table 6, parameter set for free fraction in brain
Description: 440 mg of a brain lipid extract (Avanti Polar Lipids Inc., USA) are dissolved in 50 mL of chloroform. This solution is evaporated under reduced pressure in a glass flask in a rotating rotary evaporator, wherein a thin lipid film deposits on the wall.
The lipid film is swollen overnight in a water vapor atmosphere; subsequently, 88 mL of a buffer (20 mM HEPES, pH 7.0, 30 mM NaCl, 2 mM CaCl2) are added, and the lipid film is vesiculated by means of a high-pressure homogenizer.
5 g of the carrier material provided above are added to the vesicle solution thus produced and incubated overnight. Excess lipid is removed by washing three times with buffer (20 mM HEPES, pH 7.0, 30 mM NaCl, 2 mM CaCl2). Finally, this is followed by rebuffering in PBS (phosphate-buffered saline, 10 mM sodium phosphate, 0.9% NaCl, pH 7.4) and filling up to 25 mL with buffer. The suspension obtained is then used to determine the brain lipid-water partition coefficient, as described below.
To determine the brain lipid-water partition coefficient, a total of 5 wells of a 96-well microtiter plate are filled as follows: • Well 1: 405 μL PBS • Well 2: 375 μL PBS+30 μL suspension (see 2.) • Well 3: 357 μL PBS+48 μL suspension (see 2.) • Well 4: 338 μL PBS+77 μL suspension (see 2.) • Well 5: 405 μL PBS.
To each of these wells, 45 μL of a 500 μM solution of trifluoperazine in PBS/10% DMSO are added, and after mixing by resuspension, the solid body is separated from the supernatant by sedimentation. The concentration of the substance in the supernatant is quantified by UV measurement, and the brain lipid-water partition coefficient log MAbrain is calculated through the following equation: […]
In the equation are: • Vtotal Total volume per well • Vlipid Lipid volume per well • ctotal Substance concentration of wells 1 and 5 without binding partner • cwater Substance concentration in the supernatant of wells 2-4 with binding partner.
To determine the brain lipid-water partition coefficient, two 96-well microtiter plates are filled row by row as follows: • Row 1: 405 μL PBS • Row 2: 375 μL PBS+30 μL suspension (see 2.) • Row 3: 357 μL PBS+48 μL suspension (see 2.) • Row 4: 338 μL PBS+77 μL suspension (see 2.) • Row 5: 285 μL PBS+120 μL suspension (see 2.) • Row 6: 210 μL PBS+195 μL suspension (see 2.) • Row 7: 105 μL PBS+300 μL suspension (see 2.) • Row 8: 405 μL PBS.
A broad binding range is covered by this filling of the plates. […] After mixing by resuspension, the solid body is separated from the supernatant by sedimentation.
The concentration of the substance in the supernatant is quantified by HPLC, and the brain lipid-water partition coefficient log MAbrain is calculated through the abovementioned equation (4), wherein, in this case, Vtotal is the total volume per well, Vlipid is the lipid volume per well, ctotal is the substance concentration of rows 1 and 8 without binding partner, and cwater is the substance concentration in the supernatant of wells 2-7 with binding partner.

[4] = cited from earlier work
[5] = biological target: HSA (human serum albumin) (Homo sapiens, UniProt P02768); experiment: HSA binding constants (TRANSIL HSA Binding Kit)
Chain of HSA (human serum albumin) (P02768 25-609): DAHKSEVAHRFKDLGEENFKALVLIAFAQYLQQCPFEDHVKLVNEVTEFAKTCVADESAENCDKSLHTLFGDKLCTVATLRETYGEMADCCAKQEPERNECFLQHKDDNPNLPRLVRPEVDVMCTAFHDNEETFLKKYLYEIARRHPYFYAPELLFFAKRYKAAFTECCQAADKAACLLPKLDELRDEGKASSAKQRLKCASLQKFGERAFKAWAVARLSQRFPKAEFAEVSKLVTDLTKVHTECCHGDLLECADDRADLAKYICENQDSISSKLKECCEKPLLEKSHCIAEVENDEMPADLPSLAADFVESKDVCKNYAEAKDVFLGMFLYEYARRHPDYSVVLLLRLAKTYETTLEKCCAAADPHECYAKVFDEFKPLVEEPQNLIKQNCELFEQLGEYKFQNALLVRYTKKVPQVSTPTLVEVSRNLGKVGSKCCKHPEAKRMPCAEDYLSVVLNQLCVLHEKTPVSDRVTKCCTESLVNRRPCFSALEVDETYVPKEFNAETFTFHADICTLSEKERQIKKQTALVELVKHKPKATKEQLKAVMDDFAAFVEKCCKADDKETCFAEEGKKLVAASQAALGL
From the text: In the equation are: • [drug]bound: Concentration of bound substance • [drug]free: Concentration of free substance in the supernatant • [protein]: Protein concentration in the respective wells.

[6] = log K^B/F, bound to free fraction in blood plasma calculated from KD^HSA and KD^AGP; format: in vitro ADME; settings: Table 4; calculated with [HSA] 588.2 μM, [AGP] 24.4 μM
From the text: The log K^B/F value represents the logarithmized ratio of the bound fraction to the free fraction in blood plasma, which has been approximately calculated from the dissociation constants KD^AGP and KD^HSA according to:
[formula] • fu Free substance concentration in plasma • [drug]total^plasma Total substance concentration in plasma • [HSA]

[7] = test system: T1, AGP (α1-acid glycoprotein); experiment: AGP binding constants (TRANSIL AGP Binding Kit)
T1 construct: fused on or other part: immobilised on silica beads (TRANSIL solid support)

[8] = Table 5, values from the literature
[9] = Table 4, test set for multilinear regression
[10] = Table 1, PBS pH 7.4, quantified by HPLC
[11] = Table 4, repeated parameter set

For `CNCCC(Oc1ccc(C(F)(F)F)cc1)c1ccccc1` (stereo not shown) [Fluoxetine, fluoxetine], the logBB_calc [1] is given as 1.29, the fu_brain [2] is given as 0.004 and the logMA_brain [3] is given as 3.52.
For `CN(C)CCC=C1c2ccccc2CCc2ccccc21` [Amitryptilline, amitryptilline], the logBB_calc [1] is listed as 1.38, the logBB [4, 8] is listed as 0.87 and the fu_brain [2] is listed as 0.009. The logMA_brain [3] was 2.94.
In the case of `CN(C)CCCN1c2ccccc2Sc2ccccc21` [Promazine, promazine], the Kd [5] is given as 99 µM, the logBB [4, 9] is given as 1.23 and the logMAbrain [3, 10] is given as 3.20. The logMAbrain [3, 11] was 3.20, the “logK^B/F” value [6] was 1.33 and the Kd [7] was 1.6 µM.
In the case of `Cc1cc(=O)n(-c2ccccc2)n1C` [Antipyrine, antipyrine], the Kd [5] is listed as 2700 µM, the logBB [4, 9] is listed as −0.1 and the logMAbrain [3, 10] is listed as 1.33. For the same compound, the logMAbrain [3, 11] was 1.33, the “logK^B/F” value [6] was −0.54 and the Kd ([7]; Table 3, quantified by HPLC, read-out: KD^AGP) was 380 µM.
For `CN1CCN2c3ccccc3Cc3ccccc3C2C1` (stereo not shown) [Mianserin, mianserin], the logBB_calc [1] is listed as 1.47 and the logBB [4, 8] is listed as 0.99.
For `CN(C)CCCN1c2ccccc2Sc2ccc(Cl)cc21` [Chlorpromazine, chlorpromazine], the fu_brain [2] is given as 0.002, the logMAbrain [3, 10] is given as 3.70 and the logMAbrain [3, 11] is given as 3.70. It also gave a logMA_brain [3] of 3.70 and a Kd [7] of 0.72 µM.
In the case of `CC(C)Cc1ccc(C(C)C(=O)O)cc1` (stereo not shown) [Ibuprofen, ibuprofen], the logBB [4, 9] is given as −0.18, the logMAbrain [3, 10] is given as 1.70 and the logMAbrain [3, 11] is given as 1.70. For the same compound, the “logK^B/F” value [6] was 3.14 and the Kd [7] was 670 µM.
For `CCN(CC)CCOC(=O)c1ccc(N)cc1` [Procaine, procaine], the logBB_calc [1] is listed as −0.41 and the logBB [4, 8] is listed as 0.05.
Compound `CCN(CC)CC(=O)Nc1c(C)cccc1C` [Lidocaine, lidocaine] has a logBB_calc [1] of −0.08.
For `CN1CCN(CCCN2c3ccccc3Sc3ccc(C(F)(F)F)cc32)CC1` [Trifluoperazine, trifluoperazine], the Kd [5] is listed as 12 µM, the logBB [4, 9] is listed as 1.44 and the fu_brain [2] is listed as 0.0007. The “logMAbrain” value ([3]; PBS pH 7.4, quantified by UV measurement, 5 wells) was 4.7, the logMAbrain [3, 10] was 4.70 and the logMAbrain [3, 11] was 4.70. The logMA_brain [3] was 4.70, the “logK^B/F” value [6] was 2.17 and the Kd [7] was 0.25 µM.
Work on `C=C[C@H]1C[N@@]2CC[C@H]1C[C@@H]2[C@@H](O)c1ccnc2ccc(OC)cc12` [Quinidine, quinidine] yielded a logMAbrain [3, 10] of 2.10, a logMAbrain [3, 11] of 2.10 and a Kd [7] of 13 µM.
In the case of `CC(=O)Oc1ccccc1C(=O)O` [Acetylsalicylic acid, acetylsalicylic acid], the Kd [5] is listed as 360 µM, the logBB [4, 9] is listed as −0.5 and the logMAbrain [3, 10] is listed as 1.40. For the same compound, the logMAbrain [3, 11] was 1.40, the “logK^B/F” value [6] was 0.23 and the Kd [7] was 460 µM.
In the case of `NC(=O)N1c2ccccc2C=Cc2ccccc21` [Carbamazepine, carbamazepine], the logBB_calc [1] is given as −0.09, the logBB [4, 8] is given as 0 and the fu_brain [2] is given as 0.1185. It also gave a logMA_brain [3] of 1.79.
In the case of `COc1ccc2c(c1)c(CC(=O)O)c(C)n2C(=O)c1ccc(Cl)cc1` [Indomethacin, indomethacin], the logBB [4, 9] is given as −1.26, the logMAbrain [3, 10] is given as 2.30 and the logMAbrain [3, 11] is given as 2.30. For the same compound, the “logK^B/F” value [6] was 2.97 and the Kd [7] was 43 µM.
For `O=C(CCCN1CCC(O)(c2ccc(Cl)cc2)CC1)c1ccc(F)cc1` [Haloperidol], the fu_brain [2] is listed as 0.011 and the logMA_brain [3] is listed as 2.7.
In the case of `CNCCCN1c2ccccc2CCc2ccccc21` [Desipramine, desipramine], the Kd [5] is listed as 200 µM, the logBB [4, 9] is listed as 1.2 and the Kd [7] is listed as 5.1 µM.
For `O=C1NC(=O)C(c2ccccc2)(c2ccccc2)N1` [Phenytoin], the fu_brain [2] is listed as 0.082.
For `CNC(=C[N+](=O)[O-])NCCSCc1ccc(CN(C)C)o1` [Ranitidine, ranitidine], the logBB [4, 8] is listed as −1.23.
In the case of `Cn1c(=O)c2c(ncn2C)n(C)c1=O` [Caffeine, caffeine], the fu_brain [2] is listed as 0.52, the logMAbrain [3, 10] is listed as 1.36 and the logMAbrain [3, 11] is listed as 1.36. For the same compound, the logMA_brain [3] was 1.36 and the Kd [7] was 580 µM.
For `CN(C)CCCN1c2ccccc2CCc2ccccc21` [Imipramine, imipramine], the Kd [5] is listed as 220 µM, the logBB [4, 9] is listed as 0.83 and the Kd [7] is listed as 3.1 µM.
In the case of `Clc1cccc(Cl)c1N=C1NCCN1` [Clonidine, clonidine], the Kd [5] is listed as 1900 µM, the logBB [4, 9] is listed as 0.11 and the logMAbrain [3, 10] is listed as 1.30. The logMAbrain [3, 11] was 1.30, the “logK^B/F” value [6] was −0.17 and the Kd [7] was 69 µM.
For `CCCCC1C(=O)N(c2ccccc2)N(c2ccccc2)C1=O` [Phenylbutazone, phenylbutazone], the logBB [4, 9] is given as −0.52 and the Kd [7] is given as 70 µM.
For `CC(C)NCC(O)COc1cccc2ccccc12` (stereo not shown) [Propranolol, propranolol], the Kd [5] is given as 610 µM, the logBB [4, 9] is given as 0.64 and the logMAbrain [3, 10] is given as 2.70. The logMAbrain [3, 11] was 2.70, the “logK^B/F” value [6] was 0.74 and the Kd [7] was 5.4 µM.
`Cn1c(=O)c2[nH]cnc2n(C)c1=O` [Theophylline, theophylline] showed a Kd [7] of 810 µM.
With `O=C(O)c1ccccc1O` [Salicylic acid, salicylic acid] the logMAbrain [3, 10] was 1.30, the logMAbrain [3, 11] was 1.30 and the “logK^B/F” value [6] was 1.37. It also gave a Kd [7] of 640 µM.
For `CSc1ccc2c(c1)N(CCC1CCCCN1C)c1ccccc1S2` (stereo not shown) [Thioridazine], the fu_brain [2] is listed as 0.001 and the logMA_brain [3] is listed as 3.74.
In the case of `CN/C(=N/CCSCc1nc[nH]c1C)NC#N` [Cimetidine, cimetidine], the Kd [5] is listed as 920 µM, the logBB [4, 9] is listed as −1.42 and the logMAbrain [3, 10] is listed as 1.80. The logMAbrain [3, 11] was 1.80, the “logK^B/F” value [6] was −0.13 and the Kd [7] was 250 µM.
